Assay results from patent US8546395B2, “6-cycloamino-3-(1H-pyrrolo[2,3-b]pyridin-4-yl)imidazo[1,2-b]pyridazine derivatives, preparation thereof and therapeutic use thereof” (Sanofi, priority 2008, dated 2013).

System: Mper1-luc Rat-1 (P2C4) fibroblasts
Assay: Circadian cell assay (mPer1-luciferase reporter, period prolongation)
Type: cell-based
Conditions: effective concentration that induced a 1-hour prolongation of the circadian period, interpolated from hyperbolic curve
Description: Experimental Protocols for Circadian Cell Assay
Mper1-luc Rat-1 (P2C4) fibroblast cultures were prepared by dividing the cultures every 3-4 days (approximately 10-20% of confluence) on 150 cm^2 degassed polystyrene tissue culture flasks (Falcon® #35-5001) and maintained in growth medium [EMEM (Celigro #10-010-CV); 10% foetal bovine serum (FBS; Gibco #16000-044); and 50 I.U./ml of penicillin-streptomycin (Celigro #30-001-CI)] at 37° C. and under 5% CO2.
Cells obtained from Rat-1 fibroblast cultures at 30-50% of confluence as described above were co-transfected with vectors containing the selection marker for resistance to zeocin for a stable transfection and a luciferase reporter gene controlled by the mPer-1 promoter. After 24 to 48 hours, the cultures were divided on 96-well plates and maintained in growth medium supplemented with 50-100 μg/ml of zeocin (Invitrogen® #45-0430) for 10-14 days. The zeocin-resistant stable transfectants were evaluated for the expression of the reporter by adding 100 μM luciferin (Promega® #E1603®) to the growth medium and by assaying the luciferase activity on a TopCount scintillation counter (Packard Model #C384V00). The Rat-1 cell clones expressing both zeocin resistance and lucerifase activity controlled by mPer1 were serum-shock synchronized with 50% horse serum [HS (Gibco® #16050-122)] and the activity of the circadian reporter was evaluated. The P2C4 clone of Mper1-luc Rat-1 fibroblasts was selected to test the compound. Mper1-luc Rat-1 ([…]) fibroblasts at 40-50% of confluence, obtained according to the protocol described above, were plated out onto 96-well opaque tissue culture plates (Perkin Elmer® #6005680). […]
The period analysis was performed either by determining the interval between the relative light emission minima over several days or by Fourier transform. […] The data were analysed by adjusting a hyperbolic curve to the data expressed as change of period (y-axis) as a function of the concentration of the test compound (x-axis) in the XLfit™ software and the CE Delta (t+1 h) was interpolated from this curve.

Fc1ccc(-c2nc3ccc(N4CCC(N5CCCC5)CC4)nn3c2-c2ccnc3[nH]ccc23)cc1 [Compound 36, 2-(4-Fluorophenyl)-6-(4-pyrrolidin-1-ylpiperidin-1-yl)-3-(1H-pyrrolo[2,3-b]pyridin-4-yl)imidazo[1,2-b]pyridazine]
CE Delta (t + 1 h): 1 to 7 nM
